US20220016277A1, “MACROCYCLIC COMPLEXES OF RADIONUCLIDES AND THEIR USE IN RADIOTHERAPY OF CANCER” (Cornell University, priority 2018, published 2022)

Assays:
[1] = Kinetic inertness of ^225Ac complexes: challenge with excess La^3+; type: physicochemical; conditions: 50-fold excess of La^3+; macropa 0.59 μM; RT; over 7 days
Procedure: Kinetic Inertness of ^225Ac Complexes of Macropa and DOTA.
General. Stock solutions of La(NO3)3 (0.001 M or 0.1 M) were prepared in H2O. To the radiolabeled samples containing macropa (10 μL of 10^−5M stock; 1.0×10^−10 moles) or DOTA (10 μL of 10^_3M stock; 1.0×10^−8 moles) and ^225Ac (10 μL, 26 kBq) in NH4OAc buffer (pH 6, 0.15 M, 150 μL), a 50-fold mole excess of La^3+ was added (5 μL of 0.001 M or 0.1 M stock were added to solutions containing macropa and DOTA, respectively). The solutions were kept at room temperature and analyzed by iTLC at several time points over the course of 8 days. The iTLC plates were developed using citric acid (0.05 M, pH 5) as the eluent. Under these conditions, [^225Ac(macropa)]^+ and [^225Ac(DOTA)]^− remained at the baseline (RF=0) and any unchelated ^225Ac (^225Ac-citrate) migrated with the solvent front (RF=1). Percent of complex remaining intact was calculated by integrating area under the peaks on the radiochromatogram and dividing the counts associated with the ^225Ac-complex (RF=0) by the total counts integrated along the length of the iTLC plate.
(§1) The long half-life of ^225Ac necessitates its stable complex retention in vivo to avoid off-target damage to normal tissues arising from the release of free ^225Ac^3+. Furthermore, the stability of ^225Ac complexes against transmetalation and transchelation needs to be high. […]

[2] = Stability of [^225Ac(macropa)]^+ in human serum; type: in vitro ADME
Procedure: Transmetalation by La^3+. [^225Ac(macropa)]^+ and [^225Ac(DOTA)] were prepared using 10^−5 M and 10^−3 M stock solutions (10 μL) of macropa and DOTA, respectively, to give final ligand concentrations of 5.9×10^−7 M (macropa) and 5.9×10^−5 M (DOTA). After confirming a radiochemical yield of >90% by TLC using 0.4 M sodium citrate (pH 4) containing 10% MeOH as the mobile phase, 160 μL of human serum (an equal volume based on labeling reaction volume) were added to each radiolabeled solution. A control solution was also prepared in which water was substituted for ligand. The solutions were monitored over the course of 8 days by iTLC. The plates were developed with EDTA (50 mM, pH 5) as the eluent. Under these conditions, [^225Ac(macropa)]^+ and [^225Ac(DOTA)]^− complexes remained at the baseline (RF=0) and any ^225Ac (^225Ac-EDTA) that had been transchelated by serum migrated with the solvent front (RF=1). Percent of complex remaining intact was calculated.
as §1, with “high. To determine the kinetic inertness, [^225Ac(macropa)]^+ was challenged with La^3+ because of the established high affinity of macropa for this metal ion.” for “high.”

O=C([O-])c1cccc(CN2CCOCCOCCN(Cc3cccc(C(=O)[O-])n3)CCOCCOCC2)n1.[225Ac+3] [[^225Ac(macropa)]^+]
^225Ac complex remaining intact (radio-TLC) [1]: 98% | time ^225Ac^3+ remains complexed in human serum (radio-TLC) [2]: at least 8 days
